Laboratory results taken from PubChem BioAssay (NCI).
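Test compounds were applied to cells in 96-well plates for 48 hours at 5 doses. Definition used: TGI = concentration required for complete inhibition of growth.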

Assays:
Assay in all cases: NCI anticancer screen, dose series, 48 h
SNB-75 CNS = system: SNB-75 CNS
NCI-H522 lung = system: NCI-H522 lung
SF-295 CNS = system: SF-295 CNS
NCI-H23 lung = system: NCI-H23 lung
SN12C renal = system: SN12C renal
KM12 colon = system: KM12 colon
RXF 393 renal = system: RXF 393 renal
SK-OV-3 ovarian = system: SK-OV-3 ovarian
OVCAR-8 ovarian = system: OVCAR-8 ovarian
ACHN renal = system: ACHN renal
SK-MEL-5 melanoma = system: SK-MEL-5 melanoma
786-0 renal = system: 786-0 renal
KM20L2 colon = system: KM20L2 colon
CAKI-1 renal = system: CAKI-1 renal
RPMI-8226 leukemia = system: RPMI-8226 leukemia
SK-MEL-2 melanoma = system: SK-MEL-2 melanoma
SNB-19 CNS = system: SNB-19 CNS
HCC-2998 colon = system: HCC-2998 colon
HOP-18 NSCLC = system: HOP-18 NSCLC
SK-MEL-28 melanoma = system: SK-MEL-28 melanoma
SR leukemia = system: SR leukemia
NCI-H460 lung = system: NCI-H460 lung
MALME-3M melanoma = system: MALME-3M melanoma
SW-620 colon = system: SW-620 colon
UACC-62 melanoma = system: UACC-62 melanoma
SF-539 CNS = system: SF-539 CNS
M19-MEL melanoma = system: M19-MEL melanoma
LXFL 529 NSCLC = system: LXFL 529 NSCLC
OVCAR-3 ovarian = system: OVCAR-3 ovarian
K-562 leukemia = system: K-562 leukemia
TK-10 renal = system: TK-10 renal
SF-268 CNS = system: SF-268 CNS
OVCAR-4 ovarian = system: OVCAR-4 ovarian
NCI-H226 lung = system: NCI-H226 lung
CCRF-CEM leukemia = system: CCRF-CEM leukemia
IGROV1 ovarian = system: IGROV1 ovarian
MOLT-4 leukemia = system: MOLT-4 leukemia
A549 NSCLC = system: A549 NSCLC
HL-60(TB) leukemia = system: HL-60(TB) leukemia
COLO 205 colon = system: COLO 205 colon
HT29 colon = system: HT29 colon
UO-31 renal = system: UO-31 renal
HOP-62 NSCLC = system: HOP-62 NSCLC
EKVX NSCLC = system: EKVX NSCLC
U251 CNS = system: U251 CNS
HCT-116 colon = system: HCT-116 colon
DMS 114 small cell lung = system: DMS 114 small cell lung
HOP-92 NSCLC = system: HOP-92 NSCLC
A498 renal = system: A498 renal
LOX IMVI melanoma = system: LOX IMVI melanoma
UACC-257 melanoma = system: UACC-257 melanoma
DLD-1 colon = system: DLD-1 colon
DMS 273 small cell lung = system: DMS 273 small cell lung
OVCAR-5 ovarian = system: OVCAR-5 ovarian
M14 melanoma = system: M14 melanoma
HCT-15 colon = system: HCT-15 colon
SNB-78 CNS = system: SNB-78 CNS

Work on COc1cc(/C=C2\NC(=S)C3Cc4c(OC)c(C)c(OC)c(OC)c4C2N3C)c(OC)c(C)c1OC (stereo unspecified) yielded a TGI (SNB-75 CNS) greater than 100 µM, a TGI (NCI-H522 lung) of 97.9 µM and a TGI (SF-295 CNS) greater than 100 µM. It also gave a TGI (NCI-H23 lung) greater than 100 µM, a TGI (SN12C renal) greater than 100 µM and a TGI (KM12 colon) greater than 100 µM. For the same molecule, the TGI (RXF 393 renal) was 67.6 µM, the TGI (SK-OV-3 ovarian) was greater than 100 µM and the TGI (OVCAR-8 ovarian) was greater than 100 µM. The TGI (ACHN renal) was greater than 100 µM, the TGI (SK-MEL-5 melanoma) was 73.1 µM and the TGI (786-0 renal) was greater than 100 µM. It also gave a TGI (KM20L2 colon) greater than 100 µM, a TGI (CAKI-1 renal) greater than 100 µM and a TGI (RPMI-8226 leukemia) greater than 100 µM. It also gave a TGI (SK-MEL-2 melanoma) greater than 100 µM, a TGI (SNB-19 CNS) greater than 100 µM and a TGI (HCC-2998 colon) greater than 100 µM. The TGI (HOP-18 NSCLC) was greater than 100 µM, the TGI (SK-MEL-28 melanoma) was greater than 100 µM and the TGI (SR leukemia) was 55.3 µM. It also gave a TGI (NCI-H460 lung) of 30 µM, a TGI (MALME-3M melanoma) greater than 100 µM and a TGI (SW-620 colon) greater than 100 µM. For the same molecule, the TGI (UACC-62 melanoma) was greater than 100 µM, the TGI (SF-539 CNS) was greater than 100 µM and the TGI (M19-MEL melanoma) was greater than 100 µM. The TGI (LXFL 529 NSCLC) was greater than 100 µM, the TGI (OVCAR-3 ovarian) was greater than 100 µM and the TGI (K-562 leukemia) was greater than 100 µM. It also gave a TGI (TK-10 renal) greater than 100 µM, a TGI (SF-268 CNS) greater than 100 µM and a TGI (OVCAR-4 ovarian) greater than 100 µM. For the same molecule, the TGI (NCI-H226 lung) was greater than 100 µM, the TGI (CCRF-CEM leukemia) was greater than 100 µM and the TGI (IGROV1 ovarian) was greater than 100 µM. For the same molecule, the TGI (MOLT-4 leukemia) was greater than 100 µM, the TGI (A549 NSCLC) was greater than 100 µM and the TGI (HL-60(TB) leukemia) was 67.6 µM. It also gave a TGI (COLO 205 colon) of 35.2 µM, a TGI (HT29 colon) greater than 100 µM and a TGI (UO-31 renal) greater than 100 µM. The TGI (HOP-62 NSCLC) was greater than 100 µM, the TGI (EKVX NSCLC) was greater than 100 µM and the TGI (U251 CNS) was greater than 100 µM. It also gave a TGI (HCT-116 colon) greater than 100 µM, a TGI (DMS 114 small cell lung) of 92.1 µM and a TGI (HOP-92 NSCLC) greater than 100 µM. The TGI (A498 renal) was greater than 100 µM, the TGI (LOX IMVI melanoma) was greater than 100 µM and the TGI (UACC-257 melanoma) was greater than 100 µM. For the same molecule, the TGI (DLD-1 colon) was greater than 100 µM, the TGI (DMS 273 small cell lung) was greater than 100 µM and the TGI (OVCAR-5 ovarian) was greater than 100 µM. For the same molecule, the TGI (M14 melanoma) was greater than 100 µM.

In the case of Cc1cccc(C)c1NC(=O)CCCC(=O)C(C#N)c1ccc(Cl)cc1 (stereo unspecified), the TGI (SNB-75 CNS) is reported as greater than 100 µM, the TGI (NCI-H522 lung) is reported as greater than 100 µM and the TGI (SF-295 CNS) is reported as greater than 100 µM. It also gave a TGI (NCI-H23 lung) greater than 100 µM, a TGI (SN12C renal) greater than 100 µM and a TGI (KM12 colon) greater than 100 µM. The TGI (SK-OV-3 ovarian) was greater than 100 µM, the TGI (OVCAR-8 ovarian) was greater than 100 µM and the TGI (ACHN renal) was greater than 100 µM. For the same molecule, the TGI (SK-MEL-5 melanoma) was greater than 100 µM, the TGI (786-0 renal) was greater than 100 µM and the TGI (KM20L2 colon) was greater than 100 µM. The TGI (CAKI-1 renal) was greater than 100 µM, the TGI (RPMI-8226 leukemia) was greater than 100 µM and the TGI (SK-MEL-2 melanoma) was greater than 100 µM. For the same molecule, the TGI (SNB-19 CNS) was greater than 100 µM, the TGI (HCC-2998 colon) was greater than 100 µM and the TGI (HOP-18 NSCLC) was greater than 100 µM. It also gave a TGI (SK-MEL-28 melanoma) greater than 100 µM, a TGI (SR leukemia) greater than 100 µM and a TGI (HCT-15 colon) greater than 100 µM. For the same molecule, the TGI (NCI-H460 lung) was greater than 100 µM, the TGI (MALME-3M melanoma) was greater than 100 µM and the TGI (SW-620 colon) was greater than 100 µM. It also gave a TGI (UACC-62 melanoma) greater than 100 µM, a TGI (SF-539 CNS) greater than 100 µM and a TGI (M19-MEL melanoma) greater than 100 µM. The TGI (LXFL 529 NSCLC) was greater than 100 µM, the TGI (OVCAR-3 ovarian) was greater than 100 µM and the TGI (K-562 leukemia) was greater than 100 µM. For the same molecule, the TGI (SNB-78 CNS) was greater than 100 µM, the TGI (TK-10 renal) was greater than 100 µM and the TGI (SF-268 CNS) was greater than 100 µM. The TGI (OVCAR-4 ovarian) was greater than 100 µM, the TGI (NCI-H226 lung) was greater than 100 µM and the TGI (CCRF-CEM leukemia) was greater than 100 µM. It also gave a TGI (IGROV1 ovarian) greater than 100 µM, a TGI (MOLT-4 leukemia) greater than 100 µM and a TGI (A549 NSCLC) greater than 100 µM. For the same molecule, the TGI (HL-60(TB) leukemia) was greater than 100 µM, the TGI (COLO 205 colon) was greater than 100 µM and the TGI (HT29 colon) was greater than 100 µM. For the same molecule, the TGI (UO-31 renal) was greater than 100 µM, the TGI (HOP-62 NSCLC) was greater than 100 µM and the TGI (EKVX NSCLC) was greater than 100 µM. The TGI (U251 CNS) was greater than 100 µM, the TGI (HCT-116 colon) was greater than 100 µM and the TGI (DMS 114 small cell lung) was greater than 100 µM. For the same molecule, the TGI (HOP-92 NSCLC) was greater than 100 µM, the TGI (A498 renal) was greater than 100 µM and the TGI (LOX IMVI melanoma) was greater than 100 µM. For the same molecule, the TGI (UACC-257 melanoma) was greater than 100 µM, the TGI (DLD-1 colon) was greater than 100 µM and the TGI (DMS 273 small cell lung) was greater than 100 µM. For the same molecule, the TGI (OVCAR-5 ovarian) was greater than 100 µM and the TGI (M14 melanoma) was greater than 100 µM.
